Molecular target: MAPK14 (UniProt Q16539)
Experiment: Inhibition of MAPK14 Kinase Activity

Sequence of MAPK14 (Q16539 whole entry, looked up): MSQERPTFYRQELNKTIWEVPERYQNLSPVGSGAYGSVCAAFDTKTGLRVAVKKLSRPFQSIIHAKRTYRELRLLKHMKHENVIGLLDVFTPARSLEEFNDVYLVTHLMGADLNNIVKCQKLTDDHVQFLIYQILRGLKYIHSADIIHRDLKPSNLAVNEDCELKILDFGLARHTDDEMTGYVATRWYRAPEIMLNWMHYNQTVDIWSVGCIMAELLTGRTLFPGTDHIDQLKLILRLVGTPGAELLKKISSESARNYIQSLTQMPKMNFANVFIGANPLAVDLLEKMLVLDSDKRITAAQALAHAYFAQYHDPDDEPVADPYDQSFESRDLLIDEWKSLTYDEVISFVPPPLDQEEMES

IC50	SMILES
> 100000 nM	Cc1cc(F)ccc1-c1cccc(N(Cc2ccccc2Cl)C(N)=O)n1
2800 nM	NC(=O)N(Cc1ccccc1)c1cccc(-c2ccccc2Cl)n1
12600 nM	NC(=O)N(Cc1c(Cl)cccc1Cl)c1cccc(-c2c(F)cccc2F)n1
> 100000 nM	NC(=O)N(Cc1c(Cl)cccc1Cl)c1cccc(-c2ccccc2Cl)n1
35500 nM	NC(=O)N(Cc1ccccc1Cl)c1cccc(-c2cc(F)ccc2F)n1
2810 nM	Cc1cc(F)ccc1-c1cccc(N(Cc2c(F)cccc2F)C(N)=O)n1
> 100000 nM	NC(=O)N(Cc1ccccc1Cl)c1cccc(-c2ccccc2F)n1
79400 nM	NC(=O)N(Cc1ccccc1Cl)c1cccc(-c2cccc(F)c2)n1
961 nM	NC(=O)N(Cc1ccccc1F)c1cccc(-c2ccccc2Cl)n1
> 100000 nM	NC(=O)N(Cc1ccccc1Cl)c1cccc(-c2ccc(Cl)cc2)n1
25100 nM	NC(=O)N(Cc1ccc(Cl)cc1Cl)c1cccc(-c2ccccc2Cl)n1
873 nM	Cc1ccccc1-c1cccc(N(Cc2ccccc2Cl)C(N)=O)n1
3160 nM	Cc1ccccc1-c1cccc(N(Cc2c(F)cccc2F)C(N)=O)n1
> 100000 nM	NC(=O)N(Cc1c(Cl)cccc1Cl)c1ccc(CO)c(-c2ccccc2Cl)n1
1580 nM	NC(=O)N(Cc1c(F)cccc1F)c1ccc(CO)c(-c2ccc(F)cc2F)n1
2150 nM	Cc1cc(F)ccc1-c1cccc(N(Cc2c(Cl)cccc2Cl)C(N)=O)n1
1000 nM	NC(=O)N(Cc1ccccc1F)c1ccc(CO)c(-c2ccccc2Cl)n1
> 100000 nM	NC(=O)N(Cc1ccccc1F)c1cccc(-c2ccc(Cl)cc2)n1
> 100000 nM	COc1ccccc1-c1cccc(N(Cc2ccccc2Cl)C(N)=O)n1

IC50	SMILES
888 nM	Cc1ccccc1-c1cccc(N(Cc2ccccc2F)C(N)=O)n1
> 100000 nM	COc1ccccc1-c1cccc(N(Cc2ccccc2F)C(N)=O)n1
1130 nM	NC(=O)N(Cc1ccc(F)cc1)c1cccc(-c2ccccc2Cl)n1
> 100000 nM	Cc1cc(C)cc(-c2cccc(N(Cc3ccccc3Cl)C(N)=O)n2)c1
1120 nM	NC(=O)N(Cc1cccc(F)c1)c1cccc(-c2ccccc2Cl)n1
> 100000 nM	NC(=O)N(Cc1ccccc1Cl)c1cccc(-c2ccc(F)cc2)n1
900 nM	NC(=O)N(Cc1ccccc1Cl)c1cccc(-c2ccccc2Cl)n1
100000 nM	Cc1cc(F)ccc1-c1nc(N(Cc2c(Cl)cccc2Cl)C(N)=O)ccc1CO
> 100000 nM	Cc1ccccc1-c1nc(N(Cc2c(Cl)cccc2Cl)C(N)=O)ccc1CO
2200 nM	Cc1cc(F)ccc1-c1nc(N(Cc2c(F)cccc2F)C(N)=O)ccc1CO
1250 nM	Cc1cc(F)ccc1-c1cccc(N(Cc2cccc(F)c2)C(N)=O)n1
978 nM	Cc1ccccc1-c1cccc(N(CCc2ccccc2)C(N)=O)n1
> 100000 nM	COc1ccc(-c2cccc(N(Cc3ccccc3F)C(N)=O)n2)cc1
8910 nM	Cc1ccccc1-c1cccc(N(Cc2c(Cl)cccc2Cl)C(N)=O)n1
> 100000 nM	NC(=O)N(Cc1ccccc1F)c1cccc(-c2ccc(F)cc2)n1
100000 nM	NC(=O)N(Cc1ccc(Cl)cc1Cl)c1cccc(-c2ccc(Cl)cc2)n1
751 nM	Cc1ccccc1-c1cccc(N(Cc2cccc(F)c2)C(N)=O)n1
> 100000 nM	NC(=O)N(Cc1c(F)cccc1F)c1ccc(CO)c(-c2ccccc2Cl)n1

Reference: the Kinase Knowledgebase extract (Sharma et al. 2016)
